The record followed here is article PMC7956587, “Molecular Docking Studies and Biological Evaluation of Berberine–Benzothiazole Derivatives as an Anti-Influenza Agent via Blocking of Neuraminidase” (International Journal of Molecular Sciences, 2021).

Where two headings read alike, the source gives them in different places.

For data set [1], the system named is influenza A virus A/Vic/3/75 (H3N2). In words: In vitro antiviral bioassay (CPE reduction, SRB) in MDCK cells. It is filed as cell-based. Conditions: for IC50: Influenza A virus, H3N2, MDCK, 48 h; for TI A/VIC/3/75 (H3N2): Therapeutic index, TI = CC50/IC50.
Data set [2] concerns MDCK cells. As to conditions: dog, 48 h.
Data set [3] has as its system influenza A virus A/PR/8/34 (H1N1). In words: In vitro antiviral bioassay (CPE reduction, SRB) in MDCK cells. In kind it is cell-based. Conditions: for IC50: Influenza A virus, MDCK, 48 h; for TI A/PR/8/34 (H1N1): Therapeutic index, TI = CC50/IC50.
The subject of data set [4] is influenza B virus B/Lee/40. Described as above. It is filed as cell-based. As to conditions: for IC50: Influenza B virus, MDCK cells, 50 TCID50, 48 h, mean ± S.D., triplicate; for TI B/LEE/40: Therapeutic index, TI = CC50/IC50.
The nature of data set [5]: in vitro. As to conditions: dog.
Data set [6] relates to influenza B virus B/Maryland/1/59. As to the kind of experiment: In vitro antiviral bioassay (CPE reduction, SRB) in MDCK cells. In kind it is cell-based. As to conditions: for IC50: Influenza B virus, read-out: IC50 B/MARYLAND/1/59; for TI B/MARYLAND/1/59: Therapeutic index, TI = CC50/IC50.
Data set [7] is described as follows: Cytotoxicity on MDCK cells, SRB method. As to conditions: dog. In general terms: Sulforhodamine B stains cellular protein and so reports cell mass.
Data set [8] concerns the target influenza virus neuraminidase (Influenza A virus, UniProt P03468). In words: Viral neuraminidase inhibition assay (NA-Star kit). In kind it is biochemical, influenza A/PR/8/34 virus. Conditions: (Treatment/Virus) × 100, remaining activity; for activity at 0.1 µg/mL: at 0.1 μg/mL; for activity at 1 µg/mL: at 1 μg/mL; for activity at 10 µg/mL: at 10 μg/mL.
Setting [9] is: MDCK cells, 50 TCID50, 48 h, mean ± S.D., triplicate.

influenza virus neuraminidase, sequence (P03468 whole entry, looked up): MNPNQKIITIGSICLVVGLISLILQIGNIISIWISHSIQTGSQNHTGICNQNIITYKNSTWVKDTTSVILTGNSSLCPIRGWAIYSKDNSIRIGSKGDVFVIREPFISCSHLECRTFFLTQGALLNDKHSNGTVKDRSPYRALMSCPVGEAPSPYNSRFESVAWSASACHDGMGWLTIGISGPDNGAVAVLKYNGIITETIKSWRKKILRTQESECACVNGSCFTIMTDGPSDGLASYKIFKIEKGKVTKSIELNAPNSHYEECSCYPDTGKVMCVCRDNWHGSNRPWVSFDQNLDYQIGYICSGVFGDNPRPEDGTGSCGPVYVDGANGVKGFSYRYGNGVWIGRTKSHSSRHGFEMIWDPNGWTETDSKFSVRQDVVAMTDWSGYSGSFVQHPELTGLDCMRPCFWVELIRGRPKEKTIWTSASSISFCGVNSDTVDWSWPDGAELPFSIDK

As for `CCOc1ccc2nc(NCCCCCOc3c(OC)ccc4cc5[n+](cc34)CCc3cc4c(cc3-5)OCO4)sc2c1` [BBD 6], in data set [1], the IC50 worked out at 60.4 ± 1.35 mg/L and the “TI A/VIC/3/75 (H3N2)” value stood at 3.663. The same molecule came in with a CC50 in data set [2] of 221.4 ± 1.180 mg/L. Also, in data set [3], the IC50 amounted to 42.8 ± 0.478 mg/L and the “TI A/PR/8/34 (H1N1)” value amounted to 5.176. Further, in data set [4], the IC50 worked out at 38.8 ± 2.08 mg/L and the “TI B/LEE/40” value was 5.712. This molecule also yielded a CC50 at 48 h in data set [5] greater than 100 mg/L. For the same molecule, the IC50 in data set [6] (setting [9]) worked out at 36.9 ± 2.15 mg/L. In addition, the “TI B/MARYLAND/1/59” value in data set [6] is on record as 6.003.
As to `COc1ccc2cc3[n+](cc2c1OCCCCCNc1nc2ccc(C(F)(F)F)cc2s1)CCc1cc2c(cc1-3)OCO2` [BBD 12], the IC50 in data set [1] worked out at 44.6 ± 1.65 mg/L; in data set [3], 28.7 ± 0.514 mg/L; in data set [4] it was 67.7 ± 1.52 mg/L; in data set [6] (setting [9]), 66.2 ± 1.82 mg/L. The “TI A/VIC/3/75 (H3N2)” value in data set [1] is 6.784. In addition, the CC50 in data set [2] worked out at 302.3 ± 2.446 mg/L. The “TI A/PR/8/34 (H1N1)” value in data set [3] was 10.52. Besides, the “TI B/LEE/40” value in data set [4] turned out to be 4.468. In data set [5], this molecule came in with a CC50 at 48 h greater than 100 mg/L. Also, the “TI B/MARYLAND/1/59” value in data set [6] is given as 4.565.
In the case of `COc1ccc2cc3[n+](cc2c1OCCCCCNc1nc2ccc(F)cc2s1)CCc1cc2c(cc1-3)OCO2` [BBD 10], in data set [1], the IC50 was determined as 49.9 ± 1.31 mg/L and the “TI A/VIC/3/75 (H3N2)” value was 6.228. The same molecule gave a CC50 in data set [2] of 310.6 ± 1.629 mg/L. In data set [3], the IC50 is 30.5 ± 0.761 mg/L and the “TI A/PR/8/34 (H1N1)” value was determined as 10.18. For the same molecule, in data set [4], the IC50 was 64.6 ± 1.24 mg/L and the “TI B/LEE/40” value is recorded as 4.812. The molecule further showed a CC50 at 48 h in data set [5] greater than 100 mg/L. The IC50 in data set [6] (setting [9]) worked out at 75.7 ± 2.06 mg/L. In addition, the “TI B/MARYLAND/1/59” value in data set [6] came out at 4.100.
Consider `COc1ccc2cc3[n+](cc2c1OC)CCc1cc2c(cc1-3)OCO2` [BERBERINE, Berberine], for which the IC50 in data set [1] worked out at 41.6 ± 2.04 mg/L; in data set [3], 36.1 ± 1.57 mg/L; in data set [4], 60.8 ± 1.86 mg/L; in data set [6] (MDCK, 48 h), 54.6 ± 1.45 mg/L. For the same molecule, the “TI A/VIC/3/75 (H3N2)” value in data set [1] is recorded as 1.571. In data set [7], this molecule displayed a CC50 at 48 h of 65.3 ± 1.92 mg/L. The “TI A/PR/8/34 (H1N1)” value in data set [3] is on record as 1.808. Moreover, the “TI B/LEE/40” value in data set [4] is 1.07. Besides, in data set [6], the “TI B/MARYLAND/1/59” value came out at 1.196.
For `COc1ccc2cc3[n+](cc2c1OCCCCCNc1nc2ccc(Cl)cc2s1)CCc1cc2c(cc1-3)OCO2` [BBD 7], in data set [1], the IC50 stood at 38.8 ± 2.51 mg/L and the “TI A/VIC/3/75 (H3N2)” value worked out at 11.94. The CC50 in data set [2] was found to be 463.5 ± 3.386 mg/L. In data set [8], this molecule registered an activity at 0.1 µg/mL of 37.4%, an activity at 1 µg/mL of 32.1% and an activity at 10 µg/mL of 14.5%. In data set [3], the IC50 was found to be 24.3 ± 0.419 mg/L and the “TI A/PR/8/34 (H1N1)” value came to 19.08. The same molecule yielded an IC50 in data set [4] of 81.4 ± 3.01 mg/L. The molecule further returned a CC50 at 48 h in data set [5] greater than 100 mg/L. The IC50 in data set [6] (setting [9]) worked out at 88.1 ± 1.16 mg/L. The “TI B/MARYLAND/1/59” value in data set [6] is given as 5.259.
Consider `COc1ccc2cc3[n+](cc2c1OCCCCCNc1nc2ccccc2s1)CCc1cc2c(cc1-3)OCO2` [BBD 1], for which, in data set [1], the IC50 was 45.1 ± 1.75 mg/L and the “TI A/VIC/3/75 (H3N2)” value was found to be 9.672. This molecule also displayed a CC50 in data set [2] of 436.7 ± 2.635 mg/L. In data set [8], this molecule returned an activity at 0.1 µg/mL of 40.3%, an activity at 1 µg/mL of 30.4% and an activity at 10 µg/mL of 15.6%. In addition, in data set [3], the IC50 was 25.2 ± 0.154 mg/L and the “TI A/PR/8/34 (H1N1)” value was 17.32. Besides, in data set [4], the IC50 stood at 55.5 ± 3.77 mg/L and the “TI B/LEE/40” value stood at 7.874. The molecule further returned a CC50 at 48 h in data set [5] greater than 100 mg/L. Further, the IC50 in data set [6] (setting [9]) came out at 55.1 ± 2.65 mg/L. The “TI B/MARYLAND/1/59” value in data set [6] is listed as 7.924.
As for `COc1ccc2cc3[n+](cc2c1OCCCCCNc1nc2ccc(C(=O)O)cc2s1)CCc1cc2c(cc1-3)OCO2` [BBD 3], in data set [1], the IC50 was determined as 60.7 ± 1.06 mg/L and the “TI A/VIC/3/75 (H3N2)” value came out at 6.303. In data set [2], this molecule registered a CC50 of 382.9 ± 2.964 mg/L. Also, in data set [3], the IC50 was 35.9 ± 0.659 mg/L and the “TI A/PR/8/34 (H1N1)” value came to 10.65. Besides, in data set [4], the IC50 was determined as 53.9 ± 1.36 mg/L and the “TI B/LEE/40” value stood at 7.105. The same molecule registered a CC50 at 48 h in data set [5] greater than 100 mg/L. For the same molecule, the IC50 in data set [6] (setting [9]) came to 56.4 ± 1.06 mg/L. Moreover, the “TI B/MARYLAND/1/59” value in data set [6] worked out at 6.784.
With `COc1ccc2cc3[n+](cc2c1OCCCCCNc1nc2c(F)cc(F)cc2s1)CCc1cc2c(cc1-3)OCO2` [BBD 11], in data set [1], the IC50 was determined as 48.4 ± 2.2 mg/L and the “TI A/VIC/3/75 (H3N2)” value amounted to 9.655. Further, the CC50 in data set [2] came out at 467.7 ± 2.647 mg/L. In data set [8], this molecule yielded an activity at 0.1 µg/mL of 40.8%, an activity at 1 µg/mL of 33.2% and an activity at 10 µg/mL of 18.4%. Also, in data set [3], the IC50 worked out at 27.2 ± 0.394 mg/L and the “TI A/PR/8/34 (H1N1)” value came out at 17.19. Besides, in data set [4], the IC50 was found to be 85.1 ± 3.74 mg/L and the “TI B/LEE/40” value is reported as 5.494. Also, in data set [5], the CC50 at 48 h is greater than 100 mg/L. Also, the IC50 in data set [6] (setting [9]) came out at 98.3 ± 2.21 mg/L. In addition, in data set [6], the “TI B/MARYLAND/1/59” value is listed as 4.75.
